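Cultured in 96-well plates, cells were exposed to test compound for 48 hours across five concentrations. Abbreviation: GI50, concentration required for 50% inhibition of growth.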 Active and inactive are the calls of the source. Rule as the data show it: active = GI50 up to about 1.1 µM and inactive = higher.
Tests used:
Assay in all cases: NCI tumour cell line growth inhibition, 48 h
[1] = test system: UO-31
[2] = test system: TK-10
[3] = test system: CCRF-CEM
[4] = test system: SNB-75
[5] = test system: NCI-H23
[6] = test system: SF-295
[7] = test system: NCI-H226
[8] = test system: U-251
[9] = test system: BT-549
[10] = test system: UACC-62
[11] = test system: NCI-H522
[12] = test system: KM12
[13] = test system: OVCAR-8
[14] = test system: HOP-62
[15] = test system: EKVX
[16] = test system: MDA-MB-231
[17] = test system: OVCAR-3
[18] = test system: OVCAR-5
[19] = test system: SK-MEL-5

Measured: GI50

[N-]=[N+]=Nc1cccc(-c2nnc(Cl)cc2O)c1
inactive: [1] > 10 µM | [2] > 100 µM | [3] > 100 µM | [4] 89.7 µM | [5] > 100 µM | [6] > 100 µM | [7] > 100 µM | [8] > 100 µM | [9] > 100 µM | [10] > 100 µM | [11] > 100 µM | [12] > 100 µM | [13] > 100 µM | [14] > 100 µM | [15] > 100 µM | [16] > 100 µM | [17] > 100 µM

COC1CC(OC2CCC3(C)C(CCC45CCC(C6=CC(=O)OC6)C(C)(CCC43)C5=O)C2)OC(C)C1O (stereo not drawn)
inactive: [1] 16.5 µM | [2] 51.2 µM | [3] 18.4 µM | [4] 30.3 µM | [5] 22.5 µM | [6] 33.9 µM | [18] 40.8 µM | [7] 53.1 µM | [19] 18.1 µM | [8] 46.2 µM | [9] 20.8 µM | [10] > 100 µM | [11] 27.9 µM | [12] 64.4 µM | [13] 55.8 µM | [14] 27 µM | [15] 32.4 µM | [16] > 100 µM | [17] 27.7 µM

Cc1nc(N)c(N2CCN([N+](=O)[O-])CC2)c(O)n1
inactive: [1] > 100 µM | [2] > 100 µM | [3] > 100 µM | [4] > 100 µM | [5] > 100 µM | [6] > 100 µM | [18] > 100 µM | [7] > 100 µM | [8] > 100 µM | [9] > 100 µM | [11] > 100 µM | [12] > 100 µM | [13] > 100 µM | [14] > 100 µM | [15] > 100 µM | [16] > 100 µM | [17] > 100 µM

N#CC(C(=O)c1cccnc1Cl)c1nc2cc(C(F)(F)F)ccc2s1 (stereo not drawn)
inactive: [1] 39.8 µM | [2] 55.5 µM | [4] 25.3 µM | [5] 30.8 µM | [6] 27.7 µM | [18] 33.9 µM | [7] 44.2 µM | [19] > 100 µM | [8] 78.3 µM | [9] 37.4 µM | [11] 19.8 µM | [12] 58.9 µM | [13] > 100 µM | [14] 34.8 µM | [15] 64.9 µM | [16] 54 µM | [17] > 100 µM

Clc1ccc(Cc2nc3cc(Cl)ccc3o2)cc1
inactive: [1] 32 µM | [2] 52 µM | [3] 31.6 µM | [5] 33 µM | [6] 22.8 µM | [18] 39.4 µM | [7] 29.1 µM | [19] 15.3 µM | [8] 27.7 µM | [9] 27.9 µM | [10] 36.9 µM | [11] 21.7 µM | [12] 29.7 µM | [13] 32.3 µM | [14] 17.4 µM | [15] 24.8 µM | [16] 31.7 µM | [17] 22.4 µM

Cc1ccc(C(=O)/C=C2\Nc3cccnc3NC2=O)cc1
inactive: [1] > 100 µM | [2] > 100 µM | [3] > 100 µM | [5] > 100 µM | [6] > 100 µM | [18] > 100 µM | [7] > 100 µM | [19] > 100 µM | [8] 39.5 µM | [9] > 100 µM | [10] > 100 µM | [11] 16.6 µM | [12] > 100 µM | [13] 51.2 µM | [14] 33.6 µM | [15] > 100 µM | [16] 30.8 µM | [17] > 100 µM

CCOC(=O)N/N=C(\CC)OCC
inactive: [1] > 100 µM | [2] > 100 µM | [3] > 100 µM | [4] > 100 µM | [6] > 100 µM | [18] > 100 µM | [19] > 100 µM | [9] > 100 µM | [10] > 100 µM | [11] > 100 µM | [12] > 100 µM | [13] > 100 µM | [14] > 100 µM | [15] > 100 µM | [16] > 100 µM | [17] > 100 µM

O=C(Oc1cc(=O)c(OC(=O)c2ccccc2)co1)c1ccccc1
inactive: [1] > 100 µM | [2] > 100 µM | [4] 45.6 µM | [5] > 100 µM | [6] 51.1 µM | [18] > 100 µM | [7] 85.3 µM | [19] > 100 µM | [8] 64.9 µM | [9] > 100 µM | [10] > 100 µM | [11] 26.9 µM | [12] > 100 µM | [13] > 100 µM | [14] 80 µM | [16] > 100 µM | [17] > 100 µM

COc1ccc2c(N=[N+]=[N-])c(-c3ccccc3)c(=O)oc2c1
inactive: [2] 87.5 µM | [3] 36.1 µM | [4] > 100 µM | [5] 24.5 µM | [6] 61.9 µM | [19] 25.5 µM | [9] 31.4 µM | [10] 58.6 µM | [11] 26.1 µM | [12] 34.5 µM | [13] 77.1 µM | [14] > 100 µM | [15] 39.8 µM | [16] 87.1 µM

CC(=O)OC1CC2C(C)(C)C(=O)C=CC2(C)C2CCC3(C)C(c4ccoc4)OC(=O)C4OC43C12C (stereo not drawn)
inactive: [1] 4.23 µM | [2] 95.1 µM | [4] > 100 µM | [5] 7.53 µM | [6] 14.6 µM | [18] 19.7 µM | [7] 22.2 µM | [19] 5.62 µM | [8] 6.14 µM | [9] 5.77 µM | [10] 5.37 µM | [11] 5.18 µM | [12] 3.92 µM | [13] 8.04 µM | [14] 26 µM | [15] 22.5 µM | [16] 3.85 µM | [17] 21.6 µM

NC(=O)N/N=C1\C[C@H]2CCCC[C@H]2C1
inactive: [1] > 100 µM | [2] > 100 µM | [4] > 100 µM | [6] > 100 µM | [18] > 100 µM | [7] > 100 µM | [19] > 100 µM | [8] > 100 µM | [9] 42.7 µM | [10] > 100 µM | [11] > 100 µM | [12] > 100 µM | [13] 83.4 µM | [14] > 100 µM | [15] > 100 µM | [16] > 100 µM | [17] > 100 µM

COc1ccc(N2C(=O)C3c4[nH]c5c(C)cccc5c4C4CCC(c5ccccc5)CC4C3C2=O)cc1 (stereo not drawn)
inactive: [1] 20.9 µM | [2] 32.1 µM | [3] 1.28 µM | [4] 10.7 µM | [5] 24.7 µM | [6] 17.5 µM | [18] 15.5 µM | [7] 10.4 µM | [8] 8.43 µM | [9] 24.9 µM | [10] > 10 µM | [11] 3.9 µM | [12] 12.6 µM | [13] 15.6 µM | [14] 14 µM | [15] 26.2 µM | [16] 16.3 µM | [17] 24.8 µM

CNC(=O)c1ccccc1[S+]1c2cccc3cccc(c23)C(=O)N1C (stereo not drawn)
inactive: [1] > 100 µM | [2] > 100 µM | [3] > 100 µM | [5] > 100 µM | [6] > 100 µM | [18] > 100 µM | [7] > 100 µM | [19] > 100 µM | [8] > 100 µM | [9] > 100 µM | [10] > 100 µM | [11] > 100 µM | [12] > 100 µM | [13] > 100 µM | [14] > 100 µM | [15] > 100 µM | [16] > 100 µM | [17] > 100 µM

Nc1ccc(S(=O)(=O)Nc2nnc(S(N)(=O)=O)s2)cc1
inactive: [1] > 100 µM | [2] > 100 µM | [4] > 100 µM | [5] > 100 µM | [6] > 100 µM | [18] > 100 µM | [7] 45.4 µM | [8] > 100 µM | [9] > 100 µM | [10] > 100 µM | [11] > 100 µM | [12] > 100 µM | [15] > 100 µM | [16] > 100 µM

COc1cc(O)c2c(O)c3c(=O)oc(C)cc3c(OC)c2c1 [PAEPALANTINE]
inactive: [1] 31.8 µM | [2] 29 µM | [3] 21.4 µM | [5] 23.6 µM | [6] 27 µM | [18] 32 µM | [19] 25.2 µM | [8] 32.5 µM | [9] 34.8 µM | [10] 21.9 µM | [11] 35.4 µM | [12] 27.5 µM | [13] 27.2 µM | [14] 30.3 µM | [15] 29.9 µM | [16] 28.4 µM | [17] 27.2 µM

O=C1O[C@H]2[C@H](OC(=O)c3cc(O)c(O)c(O)c3)[C@@H](OC(=O)c3cc(O)c(O)c4c3[C@@H]3C1=CC(=O)C(O)(O)C3(O)O4)[C@H](OC(=O)c1cc(O)c(O)c(O)c1)O[C@@H]2COC(=O)c1cc(O)c(O)c(O)c1 (stereo partly drawn) [TERCHEBIN]
inactive: [1] 18.5 µM | [3] 23 µM | [4] 49.9 µM | [5] 42.8 µM | [6] 48.4 µM | [18] 65.6 µM | [7] 35.7 µM | [19] 75.7 µM | [8] 54.1 µM | [9] > 100 µM | [10] 50.6 µM | [11] 32.1 µM | [12] 14.6 µM | [13] 39.3 µM | [14] 99.3 µM | [15] 39.4 µM | [16] 41.9 µM | [17] 39.5 µM

From ChEMBL document CHEMBL1201862, “PubChem BioAssay data set” (2004)
